# Laboratory results: ChEMBL document CHEMBL5352429, “Designed symmetrical β-hairpin peptides for treating multidrug-resistant salmonella typhimurium infections” (Eur J Med Chem, 2022)
# The source made the active and inactive calls. The calls are words filed in the database; no cut-off is given here. Peptide text beside a SMILES is read from it.
# What was measured:
# Salmonella typhimurium [1] = assay: Antibacterial activity against Salmonella typhimurium DT104 in the presence of KCl by MH broth based assay; assay type: functional, Salmonella enterica subsp. enterica serovar Typhimurium; conditions: Salmonella enterica
# [2] = (§1) Antibacterial activity against Salmonella blockley CICC 21489 incubated overnight by standard microtiter dilution method; assay type: functional, Salmonella enterica subsp. enterica serovar Blockley; conditions: Salmonella enterica
# RAW264.7 [3] = assay: Inhibition of LPS-stimulated NO production in mouse RAW264.7 cells incubated for 24 hrs by Griess reagent based analysis; assay type: functional, cell-based; conditions: dose 1-128 µg/ml
# Salmonella typhimurium [4] = assay: Antibacterial activity against Salmonella typhimurium DT104 in the presence 50% inactivated mouse serum by MH broth based assay; assay type: functional, Salmonella enterica subsp. enterica serovar Typhimurium; conditions: Salmonella enterica
# RAW264.7 [5] = assay: Inhibition of LPS-stimulated TNF-alpha production in mouse RAW264.7 cells at 1 to 128 ug/ml incubated for 24 hrs by ELISA analysis; assay type: functional, cell-based; conditions: dose 1-128 µg/ml
# Erythrocyte = assay: Hemolytic activity in human Red blood cells assessed as hemolysis incubated for 1 hrs by absorbance based microplate reader analysis; assay type: toxicity, cell-based
# Salmonella typhimurium [6] = assay: Antibacterial activity against Salmonella typhimurium CICC 21913 incubated overnight by standard microtiter dilution method; assay type: functional, Salmonella enterica subsp. enterica serovar Typhimurium
# [7] = (§2) Cytotoxicity against mouse RAW264.7 cells infected with Salmonella typhimurium DT104 assessed as cell viability at 1 times of MIC measured at 180 min by MTT assay; assay type: toxicity, cell-based; conditions: RAW264.7 cells infected with Salmonella typhimurium DT104, read-out: Activity
# Salmonella paratyphi = assay: Antibacterial activity against Salmonella paratyphi A CICC 21501 incubated overnight by standard microtiter dilution method; assay type: functional, Salmonella enterica subsp. enterica serovar Paratyphi A
# RAW264.7 [8] = assay: Inhibition of LPS-stimulated IL-1beta production in mouse RAW264.7 cells at 1 to 128 ug/ml incubated for 24 hrs by ELISA analysis; assay type: functional, cell-based; conditions: dose 1-128 µg/ml
# Salmonella typhimurium [9] = assay: Antibacterial activity against Salmonella typhimurium DT104 in the presence of FeCl3 by MH broth based assay; assay type: functional, Salmonella enterica subsp. enterica serovar Typhimurium; conditions: Salmonella enterica
# [10] = (§3) Antibacterial activity against Salmonella paratyphi C CICC 21512 incubated overnight by standard microtiter dilution method; assay type: functional, Salmonella enterica subsp. enterica serovar Paratyphi C; conditions: Salmonella enterica
# Salmonella typhimurium [11] = assay: Antibacterial activity against multi-drug resistant Salmonella typhimurium DT104 assessed as inhibition of bacterial growth at 0.5 to 2 times of MIC by MH agar based serial dilution method; assay type: functional, organism-based; conditions: Salmonella enterica subsp. enterica serovar Typhimurium, time <= 120.0 min, TDE = time-dependent effect
# Enterococcus faecalis = assay: Antibacterial activity against Enterococcus faecalis ATCC 29212 incubated overnight by standard microtiter dilution method; assay type: functional
# Salmonella typhimurium [12] = assay: Antibacterial activity against Salmonella typhimurium DT104 in the presence 25% inactivated mouse serum by MH broth based assay; assay type: functional, Salmonella enterica subsp. enterica serovar Typhimurium; conditions: Salmonella enterica
# [13] = system: Salmonella enterica subsp. enterica serovar Paratyphi B; assay: Antibacterial activity against Salmonella paratyphi B CICC 21495 incubated overnight by standard microtiter dilution method; assay type: functional
# Salmonella typhimurium [14] = assay: Antibacterial activity against Salmonella typhimurium DT104 in the presence of MgCl2 by MH broth based assay; assay type: functional, Salmonella enterica subsp. enterica serovar Typhimurium; conditions: Salmonella enterica
# Cell membrane [15] = assay: Induction of cytoplasmic membrane depolarization in Salmonella typhimurium DT104 assessed as increase in fluorescence intensity at 2 times of MIC incubated for 15 mins by DiSC3-5 dye based fluorescence method; assay type: subcellular; conditions: Salmonella enterica subsp. enterica serovar Typhimurium
# [16] = (§4) Antibacterial activity against Salmonella dublin CICC 21497 incubated overnight by standard microtiter dilution method; assay type: functional, Salmonella enterica subsp. enterica serovar Dublin; conditions: Salmonella enterica
# Salmonella typhimurium [17] = assay: Antibacterial activity against Salmonella typhimurium CICC 21483 incubated overnight by standard microtiter dilution method; assay type: functional, Salmonella enterica subsp. enterica serovar Typhimurium
# Salmonella typhimurium [18] = assay: Antibacterial activity against Salmonella typhimurium DT104 in the presence of NaCl by MH broth based assay; assay type: functional, Salmonella enterica subsp. enterica serovar Typhimurium; conditions: Salmonella enterica
# Candida albicans = assay: Antifungal activity against Candida albicans ATCC 10231 incubated overnight by standard microtiter dilution method; assay type: functional
# Cell membrane [19] = assay: Disruption of membrane integrity in Salmonella typhimurium DT104 assessed as increase in fluorescence intensity at 0.5 to 2 times of MIC incubated for 15 mins by PI staining based flow cytometric analysis; assay type: subcellular; conditions: Salmonella enterica subsp. enterica serovar Typhimurium
# Salmonella enteritidis = assay: Antibacterial activity against Salmonella enteritidis CICC 21527 incubated overnight by standard microtiter dilution method; assay type: functional, Salmonella enterica subsp. enterica serovar Enteritidis
# Escherichia coli = assay: Antibacterial activity against Escherichia coli O157:H7 CICC 21530 incubated overnight by standard microtiter dilution method; assay type: functional
# RAW264.7 [20] = assay: Inhibition of LPS-stimulated IL-8 production in mouse RAW264.7 cells at 1 to 128 ug/ml incubated for 24 hrs by ELISA analysis; assay type: functional, cell-based; conditions: dose 1-128 µg/ml
# [21] = Hemolytic activity in human Red blood cells assessed as hemolysis at 128 ug/ml incubated for 1 hrs by absorbance based microplate reader analysis relative to control; assay type: toxicity, cell-based, Erythrocyte; conditions: red blood cells (erythrocytes), at 128 µg/mL, read-out: Activity
# Salmonella typhimurium [22] = assay: Antibacterial activity against multi-drug resistant Salmonella typhimurium DT104 assessed as inhibition of bacterial growth measured upto 120 mins by MH agar based serial dilution method; assay type: functional, organism-based; conditions: Salmonella enterica subsp. enterica serovar Typhimurium
# [23] = (§5) Antibacterial activity against Salmonella wandsworth CICC 21504 incubated overnight by standard microtiter dilution method; assay type: functional, Salmonella enterica subsp. enterica serovar Wandsworth; conditions: Salmonella enterica
# Salmonella typhimurium [24] = assay: Antibacterial activity against Salmonella typhimurium DT104 in the presence of NH4Cl by MH broth based assay; assay type: functional, Salmonella enterica subsp. enterica serovar Typhimurium; conditions: Salmonella enterica
# [25] = (§6) Antibacterial activity against Salmonella enterica subsp. enterica serovar Choleraesuis ATCC 13312 incubated overnight by standard microtiter dilution method; assay type: functional
# Salmonella typhimurium [26] = assay: Antibacterial activity against Salmonella typhimurium DT104 ATCC 700408 incubated overnight by standard microtiter dilution method; assay type: functional, Salmonella enterica subsp. enterica serovar Typhimurium
# Staphylococcus aureus [27] = assay: Antibacterial activity against Staphylococcus aureus ATCC 29213 incubated overnight by standard microtiter dilution method; assay type: functional
# Staphylococcus aureus [28] = assay: Antibacterial activity against methicillin-resistant Staphylococcus aureus ATCC 43300 incubated overnight by standard microtiter dilution method; assay type: functional
# Lipopolysaccharide (LPS) = assay: Displacement of BODIPY-TR-cadaverine from Salmonella typhimurium LPS assessed as increase in fluorescence intensity by fluorescence spectrophotometric analysis; conditions: Salmonella enterica subsp. enterica serovar Typhimurium; dose 0.25-8 µg/ml
# Salmonella typhimurium [29] = assay: Antibacterial activity against Salmonella typhimurium DT104 infected in mouse RAW264.7 cells assessed as reduction in bacterial cells at 1 times of MIC measured for 180 mins by MH agar based serial dilution method; assay type: functional, organism-based; conditions: Salmonella enterica subsp. enterica serovar Typhimurium
# Salmonella typhimurium [30] = assay: Antibacterial activity against Salmonella typhimurium DT104 in the presence of CaCl2 by MH broth based assay; assay type: functional, Salmonella enterica subsp. enterica serovar Typhimurium; conditions: Salmonella enterica
# [31] = system: Staphylococcus epidermidis; assay: Antibacterial activity against methicillin-resistant Staphylococcus epidermidis ATCC 12228 incubated overnight by standard microtiter dilution method; assay type: functional
# [32] = (§7) Antibacterial activity against Salmonella enterica subsp. enterica serovar Choleraesuis CICC 21493 incubated overnight by standard microtiter dilution method; assay type: functional
# RAW264.7 [33] = assay: as §2; assay type: toxicity, cell-based; conditions: raw264.7, 3 h
# [34] = system: Salmonella enterica subsp. enterica serovar Blockley; assay: as §1; assay type: functional
# Salmonella typhimurium [35] = assay: Antibacterial activity against multi-drug resistant Salmonella typhimurium DT104 infected in ICR mouse model assessed as reversal of mouse vitality loss at 2 mg/kg, ip administered for 3 days and measured on day 7; assay type: functional, organism-based; conditions: Salmonella enterica subsp. enterica serovar Typhimurium, time 7.0 day
# Salmonella typhimurium [36] = assay: Antibacterial activity against multi-drug resistant Salmonella typhimurium DT104 infected in ICR mouse model assessed as reversal of body weight loss at 2 mg/kg, ip administered for 3 days and measured on day 7; assay type: functional, organism-based; conditions: Salmonella enterica subsp. enterica serovar Typhimurium, time 7.0 day
# [37] = system: Salmonella enterica subsp. enterica serovar Paratyphi C; assay: as §3; assay type: functional
# [38] = system: Salmonella enterica subsp. enterica serovar Dublin; assay: as §4; assay type: functional
# [39] = system: Salmonella enterica subsp. enterica serovar Wandsworth; assay: as §5; assay type: functional
# [40] = system: Salmonella enterica subsp. enterica serovar Choleraesuis; assay: as §6; assay type: functional
# Salmonella typhimurium [41] = assay: Antibacterial activity against multi-drug resistant Salmonella typhimurium DT104 infected in ICR mouse model assessed as fecal shedding of bacteria at 2 mg/kg, ip administered for 3 days and measured on day 7; assay type: functional, organism-based; conditions: Salmonella enterica subsp. enterica serovar Typhimurium, time 7.0 day
# Salmonella typhimurium [42] = assay: Antibacterial activity against multi-drug resistant Salmonella typhimurium DT104 infected in ICR mouse model assessed as reversal of mouse vigour loss at 2 mg/kg, ip administered for 3 days and measured on day 7; assay type: functional, organism-based; conditions: Salmonella enterica subsp. enterica serovar Typhimurium, time 7.0 day
# [43] = system: Salmonella enterica subsp. enterica serovar Choleraesuis; assay: as §7; assay type: functional
# [44] = Salmonella enterica subsp. enterica serovar Typhimurium
compound,measurement,setting,value
CC(C)C[C@H](NC(=O)[C@H](CCCCN)NC(=O)[C@H](CC(C)C)NC(=O)[C@H](CCCCN)NC(=O)[C@H](CS)NC(=O)CNC(=O)[C@H](CO)NC(=O)[C@H](CCCCN)NC(=O)[C@@H](NC(=O)[C@H](CS)NC(=O)[C@H](CCCCN)NC(=O)[C@H](CC(C)C)NC(=O)[C@H](CCCCN)NC(=O)[C@@H](N)CC(C)C)[C@@H](C)O)C(N)=O (H-LKLKCTKSGCKLKL-NH2),MIC,Salmonella typhimurium [1],16 µg/mL
same,MIC,[2],32 µg/mL
same,inhibition,RAW264.7 [3],Dose-Dependent Effect
same,MIC,Salmonella typhimurium [4],64 µg/mL
same,inhibition,RAW264.7 [5],Active
same,MHC,Erythrocyte,> 128 µg/mL
same,MIC,Salmonella typhimurium [6]; Salmonella enterica,64 µg/mL
same,"viability at 3 h, 1 times of MIC",[7],> 90%
same,MIC,Salmonella paratyphi; Salmonella enterica,4 µg/mL
same,inhibition,RAW264.7 [8],Active
same,MIC,Salmonella typhimurium [9],128 µg/mL
same,MIC,[10],2 µg/mL
same,Activity,Salmonella typhimurium [11],Tde
same,MIC,Enterococcus faecalis,32 µg/mL
same,MIC,Salmonella typhimurium [12],64 µg/mL
same,MIC,[13],2 µg/mL
same,MIC,Salmonella typhimurium [14],32 µg/mL
same,Activity,Cell membrane [15],Active
same,MIC,[16],8 µg/mL
same,MIC,Salmonella typhimurium [17]; Salmonella enterica,16 µg/mL
same,MIC,Salmonella typhimurium [18],32 µg/mL
same,MIC,Candida albicans,4 µg/mL
same,Activity,Cell membrane [19],Active
same,MIC,Salmonella enteritidis; Salmonella enterica,16 µg/mL
same,MIC,Escherichia coli,2 µg/mL
same,inhibition,RAW264.7 [20],Active
same,"hemolysis at 1 h, 128 ug/ml",[21],< 10%
same,Activity,Salmonella typhimurium [22],Dose-Dependent Effect
same,MIC,[23],16 µg/mL
same,MIC,Salmonella typhimurium [24],16 µg/mL
same,MIC,[25],1 µg/mL
same,MIC,Salmonella typhimurium [26]; Salmonella enterica,32 µg/mL
same,MIC,Staphylococcus aureus [27],32 µg/mL
same,MIC,Staphylococcus aureus [28],16 µg/mL
same,Activity,Lipopolysaccharide (LPS),Dose-Dependent Effect
same,Activity,Salmonella typhimurium [29],Active
same,MIC,Salmonella typhimurium [30],64 µg/mL
same,MIC,[31],8 µg/mL
same,MIC,[32],16 µg/mL
POLYMYXIN B [listing 1 of 2 here],MHC,Erythrocyte,> 128 µg/mL
same,Activity,RAW264.7 [33],> 90%
POLYMYXIN B [listing 2 of 2 here],MIC,[34],1 µg/mL
same,Activity,Salmonella typhimurium [35],inactive
same,MIC,Salmonella typhimurium [6]; [44],2 µg/mL
same,Activity,Salmonella typhimurium [36],inactive
same,MIC,Salmonella paratyphi; Salmonella enterica subsp. enterica serovar Paratyphi A,4 µg/mL
same,MIC,[37],2 µg/mL
same,MIC,Enterococcus faecalis,128 µg/mL
same,MIC,[13],2 µg/mL
same,MIC,[38],2 µg/mL
same,MIC,Salmonella typhimurium [17]; [44],2 µg/mL
same,MIC,Candida albicans,64 µg/mL
same,MIC,Salmonella enteritidis; Salmonella enterica subsp. enterica serovar Enteritidis,2 µg/mL
same,MIC,Escherichia coli,32 µg/mL
same,MIC,[39],1 µg/mL
same,MIC,[40],1 µg/mL
same,MIC,Salmonella typhimurium [26]; [44],4 µg/mL
same,MIC,Staphylococcus aureus [27],64 µg/mL
same,Activity,Salmonella typhimurium [41],inactive
same,Activity,Salmonella typhimurium [42],inactive
same,MIC,Staphylococcus aureus [28],> 128 µg/mL
same,Activity,Lipopolysaccharide (LPS),Dose-Dependent Effect
same,MIC,[31],4 µg/mL
same,MIC,[43],4 µg/mL
